Tests used:
olfactory epithelium [1] = test: PET imaging of radiotracer uptake and specific binding with unlabeled-compound pretreatment in rats; assay type: in vivo, Sprague-Dawley rat
Excerpt: Prior to imaging, animals were anesthetized with isoflurane and a catheter was placed in a lateral tail vein. An extension line was used to attach the catheter to a syringe with heparinized saline, which was used to prevent clotting of the line and catheter. Animals were then placed in one of two instruments (a GammeMedicaTriumph PET/CT/SPECT scanner or a Siemens R4 PET scanner) and maintained under isoflurane anesthesia for the imaging period. For scans completed in the Triumph scanner, CT images of the animals were taken for PET image attenuation. For animals imaged in the R4, a Germanium (Ge) 68 or a Cobalt (Co) 57 line source was used to create an attenuation correction map. Following imaging, animals were placed in their cages and monitored until they recovered from the anesthesia.
Male Sprague-Dawley rats were imaged with [^11C] radiolabeled N-benzyl-2-fluoro-9-methyl-9H-purin-6-amine following treatment with [^12C] radiolabeled N-benzyl-2-fluoro-9-methyl-9H-purin-6-amine to determine the specific binding of the radiotracer in the olfactory epithelium. Animals were injected with [^12C] radiolabeled N-benzyl-2-fluoro-9-methyl-9H-purin-6-amine (i.v.; 16 mg/kg; 4 mg/mL in 10% DMSO, 10% Tween 20, and 80% saline). After 5 min, animals were injected with [^11C] radiolabeled N-benzyl-2-fluoro-9-methyl-9H-purin-6-amine (0.3-1.5 mCi), in 10% ethanol, 90% saline). [^11C] […] Although [^11C] […] N-benzyl-2-fluoro-9-methyl-9H-purin-6-amine binding in the presence of unlabeled N-benzyl-2-fluoro-9-methyl-9H-purin-6-amine, shown in FIG. 1A-1D.
Animals were injected with an unlabeled N-benzyl-2-fluoro-9-methyl-9H-purin-6-amine (0.1-16 mg/kg in 10% DMSO, 10% Tween 20, and 80% saline). Following this, animals were injected with [^11C] radiolabeled N-benzyl-2-fluoro-9-methyl-9H-purin-6-amine (0.3-1.5 mCi, in 10% ethanol, 90% saline). For the self-blocking dose-response study, the animals were co-administered with N-benzyl-2-fluoro-9-methyl-9H-purin-6-amine and [^11C] radiolabeled N-benzyl-2-fluoro-9-methyl-9H-purin-6-amine in 10% DMSO, 10% Tween 20, 10% ethanol and 70% saline in 1 mL.

olfactory epithelium [2] = test: PET-MR imaging of radiotracer uptake in non-human primate; assay type: in vivo, rhesus macaque; conditions: NHPs
Procedure: The non-human primates were initially anesthetized with ketamine, followed by maintenance with isoflurane. Animals were placed on the imaging bed and two lines were inserted, an IV line for tracer administration and an arterial line for blood sampling. The animals were scanned for 90 minutes, including time for the MR structural scan. During the scan and tracer injection, the heart and breathing rate of the animal were monitored. Tracer doses were 4-6 mCi (bolus or bolus-plus-infusion) with or without treatment with study compounds (nonradioactive ‘blocking agent’). Prior to tracer injection, the purified tracer was analyzed on an analytical HPLC instrument to determine the purity (must be >95% chemical purity, must be >99% radiochemical purity) and specific activity (must be >1.0 Ci·μmol^−1 of the compound). As standard practice for all NHP work, pyrogenicity, chemical and radiochemical stability, residual solvents, pH, and sterility (post injection) were tested for. For [^11C] radiolabeled compounds, paired studies were performed with radiotracer injections spaced >2.5 h apart. For [^18F] studies, paired studies were performed by assessing baseline and pretreatment effect on two separate days. […]

[3] = PET, i.v. radiotracer, male Sprague-Dawley rats

Q: What does the source list for [11CH3]n1cnc2c(NCc3ccccc3)nc(F)nc21 [[^11C] Radiolabeled N-benzyl-2-fluoro-9-methyl-9H-purin-6-amine]?
A: non-specific binding (olfactory epithelium [1]; PET, brain): low non-specific binding; specific binding in the brain (olfactory epithelium [1]; PET, brain): limited specific binding in the brain; initial uptake in the brain (olfactory epithelium [1]; [3]): high initial uptake in the brain; removal from the brain (olfactory epithelium [1]; [3]): fast removal from the brain; specific binding in the nasal cavity (olfactory epithelium [1]; PET, nasal cavity where olfactory receptor neurons are located, rats): specific binding in the nasal cavity; change of radiotracer binding in the presence of unlabeled N-benzyl-2-fluoro-9-methyl-9H-purin-6-amine (olfactory epithelium [1]; nasal cavity, rats, unlabeled compound i.v. 16 mg/kg 5 min before tracer): decrease; specific binding in the nasal cavity (olfactory epithelium [2]): specific binding is present in the nasal cavity; change of radiotracer binding in the presence of unlabeled N-benzyl-2-fluoro-9-methyl-9H-purin-6-amine (olfactory epithelium [2]; nasal cavity): decrease

Source: patent US10519160B2, “Imaging agents for neural flux” (The General Hospital Corporation, priority 2014, dated 2019)
